Measured values from patent publication US20070167438A1, “Treatment of substance abuse” (Wyeth, priority 2006, published 2007).

System: Rats
Assay: Open field locomotor activity (distance moved, zones crossed) with or without cocaine
Assay type: in vivo
Conditions: open field 1 hour after dosing, five minute test
Method: Using (9aR,12aS)-4,5,6,7,9,9a,10,11,12,12a-decahydrocyclopenta[c][1,4]diazepino[6,7,1-ij]quinoline hydrochloride (Compound 1) as an example, the Rats were dosed either with vehicle or with cocaine in the presence or absence of Compound 1 (1.7 mg/kg. sc). One hour after dosing (i.p. & s.c.), rats were put in a open field, where distance moved and zones crossed were recorded by the ethovision program.
Animals were brought to the lab room 1 hour before the start of the experiment. Rats were injected with compound(s) 1 hour before being placed in the open field. Rats were then placed in open field, and the test lasted for five minutes.

## Cl.c1cc2c3c(c1)[C@H]1CCC[C@H]1CN3CCNC2 [Compound 1, (9aR,12aS)-4,5,6,7,9,9a,10,11,12,12a-decahydrocyclopenta[c][1,4]diazepino[6,7,1-ij]quinoline hydrochloride]
Compound 1 1.7 mg/kg sc + cocaine 3 mg/kg ip
  reversal of the hyperactivity produced by cocaine: completely reversed
Compound 1 1.7 mg/kg sc + vehicle
  effect on locomotor activity alone: no effect
